Experimental data published in patent publication US9944927B2, “Therapeutic applications of p53 isoforms in regenerative medicine, aging and cancer” (The United States of America as Represented by the …, priority 2007, dated 2018).

Assays:
Assay type in all cases: cell-based, human
[1] = test system: MRC-5 and WI-38 fibroblasts; experiment: cellular senescence: senescent growth arrest, SA-β-gal staining; details: siRNA-transfected early-passage MRC-5 and WI-38, day 7
[2] = test system: MRC-5 and WI-38 fibroblasts; experiment: BrdU incorporation assay; details: siRNA-transfected early-passage MRC-5 and WI-38, day 7; 10 μM BrdU 24 h
Experimental: (§1) For cell proliferation assay, 2.4×10^5 cells per well were plated into 12-well plates. These cells were collected and counted daily for a week using a hematocytometer. The experiments were performed at least twice and data at each time point were in triplicate. For examining cellular replicative lifespan, the number of cells was counted at each passage, and the number of population doublings (PDL) achieved between passages was determined by log2 (number of cells obtained/number of cells inoculated) (Michishita, E. et al., Mol. Biol. Cell 16:4623 (2005); Pereira-Smith, O. M. et al., Somatic Cell Genet. 7:411 (1981)). […] The incorporated BrdU was detected using an anti-BrdU monoclonal antibody (Amersham Biosciences) and observed with a fluorescent microscope. […]
as §1, with “The experiments were performed at least twice and data at each time point were in triplicate.” left out, “inoculated)^29.” for “inoculated) (Michishita, E. et al., Mol. Biol. Cell 16:4623 (2005); Pereira-Smith, O. M. et al., Somatic Cell Genet. 7:411 (1981)).”

p21^WAF1 and MDM2 = experiment: immunoblot of p53 transcriptional targets p21WAF1 and MDM2; details: siRNA-transfected early-passage MRC-5 and WI-38, day 7
Experimental: Cells were lysed in RIPA buffer [10 mM Tris-HCl, pH 7.5, 150 mM NaCl, 0.1% SDS, 0.1% sodium deoxycholate, 1 mM EDTA, 1% NP-40, complete protease inhibitors (Roche), phosphatase inhibitor cocktail 1 and 2 (Sigma)]. Lysates were separated by SDS-PAGE and transferred to nitrocellulose membranes (BIO-RAD) Immunoblot analysis was accomplished according to standard procedures using ECL detection (Amersham Bioscience) or SuperSignal West Dura Extended Duration system (PIERCE).
A polyclonal antibody specifically recognizing Δ133p53 (MAP4) was raised at Moravian Biotechnology (Brno, Czech Republic) in rabbits injected with a mixture of peptides MFCQLAKTC (SEQ ID NO:13) and FCQLAKTCP (SEQ ID NO:14), which were synthesized as Multiple Antigenic Peptide by G. Bloomberg (University of Bristol, Bristol, UK). […]
Cells or tissues were lysed in RIPA buffer [10 mM Tris-HCl, pH 7.5, 150 mM NaCl, 0.1% SDS, 0.1% sodium deoxycholate, 1 mM EDTA, 1% NP-40, complete protease inhibitors (Roche, Indianapolis, Ind.), phoshatase inhibitor cocktail 1 and 2 (Sigma-Aldrich)]. […] The quantitative analysis of the immunoblot data was performed using the ImageJ 1.40 g software (on the world wide web at rsb.info.nih.gov/ij/). […]

PAI-1 = experiment: real-time qRT-PCR of PAI-1 mRNA; details: siRNA-transfected early-passage WI-38, day 7
Description: For quantitative measurement of PAI-1 mRNA, the SYBR Green PCR Master Mix (Applied Biosystems) was used with the following primers: 5′-CTC CTG GTT CTG CCC AAG T-3′ (SEQ ID NO:15) and 5′-CAGGTTCTCTAGGGGCTTCC-3′ (SEQ ID NO:16) for PAI-1; and 5′-TTC TGG CCT GGA GGC TAT C-3′ (SEQ ID NO:17) and 5′-TCAGGAAATTTGACTTTCCATTC-3′ (SEQ ID NO:18) for β-2 microglobulin as an internal control. For IL-8 and IL-8R, the Taqman Universal PCR Master Mix (Applied Biosystems) was used with the following sets of probe and primers purchased from Applied Biosystems: IL-8 (catalog #4331182, Hs00174103_m1); IL-8R (catalog #4331182, Hs001174304_m1); and 18S endogenous control (catalog #4319413).

caspase-3 and PARP = experiment: apoptosis immunoblot of caspase-3 and PARP; details: for cleaved caspase-3 or PARP (apoptosis): siRNA-transfected MRC-5 and WI-38
Experimental: Cells or tissues were lysed in RIPA buffer [10 mM Tris-HCl, pH 7.5, 150 mM NaCl, 0.1% SDS, 0.1% sodium deoxycholate, 1 mM EDTA, 1% NP-40, complete protease inhibitors (Roche, Indianapolis, Ind.), phoshatase inhibitor cocktail 1 and 2 (Sigma-Aldrich)]. SDS-PAGE, transfer to nitrocellulose or PVDF membranes (Bio-Rad, Hercules, Calif.), incubation with antibodies, and signal detection followed the standard procedures using ECL detection (Amersham Biosciences, Piscataway, N.J.) or SuperSignal West Dura Extended Duration system (Pierce Biotechnology, Rockford, Ill.). The quantitative analysis of the immunoblot data was performed using the ImageJ 1.40 g software (on the world wide web at rsb.info.nih.gov/ij/).
A polyclonal antibody specifically recognizing Δ133p53 (MAP4) was raised at Moravian Biotechnology (Brno, Czech Republic) in rabbits injected with a mixture of peptides, MFCQLAKTC (SEQ ID NO:13) and FCQLAKTCP (SEQ ID NO: 14), which were synthesized as Multiple Antigenic Peptide by Dr. G. Bloomberg (University of Bristol, Bristol, UK). The other primary antibodies used were: TLQ40^5 for p53β; CM1^5, DO-12 (Millipore, Billerica, Mass.) and DO-1 (Santa Cruz Biotechnology, Santa Cruz, Calif.) for p53; EA10 (Carbiochem, San Diego, Calif.) for p21^WAF1; SMP14 (Santa Cruz Biotechnology) for MDM2; 8G10 (Cell Signaling Technology, Danvers, Mass.) for caspase-3; M2 monoclonal antibody (Sigma-Aldrich) for FLAG tag; AC-15 (Sigma-Aldrich) for β-actin; MAB3450 (Chemicon International, Temecula, Calif.) for HP1-γ; anti-phospho-p53 (Ser15) (Cell Signaling Technology); anti-PARP (Cell Signaling Technology); FITC-conjugated anti-CD8 (BD Biosciences, Franklin Lakes, N.J.); APC-conjugated anti-CD28 (BD Biosciences); and PE-conjugated anti-CD57 (Abcam, Cambridge, Mass.). Horseradish peroxidase-conjugated goat anti-mouse or anti-rabbit antibodies (Santa Cruz Biotechnology) were used as secondary antibodies in immunoblots.

miR-34a = experiment: real-time qRT-PCR of miR-34a expression; details: for miR-34a expression at Δ133p53 knockdown-induced senescence: siRNA-transfected MRC-5 and WI-38
Experimental: (§2) RNA samples were prepared by using Trizol (Invitrogen). Reverse transcriptase reactions were performed using TagMan miRNA reverse transcription kit (Applied Biosystems, cat. no. 4366596) and a miR-34a-specific primer. The TagMan miRNA assay kit for miR-34a (Applied Biosystems, cat. no. 4373278) was used according to the supplier's protocol. Real-time PCR reactions were performed in triplicate. RNU66 (Applied Biosystems, cat. no. 4373382) was used as a control for quantification. Based on Ct (cycle threshold) values from miR-34a and RNU66 detections, normalized miR-34a expression was calculated by using the […] method according to the supplier's protocol (protocol no. 4310255B and User Bulletin no. 4303859B found on the world wide web at appliedbiosystems.com/index.cfm).
as §2, with “TaqMan microRNA” for “TagMan miRNA”

[3] = test system: MRC-5 and WI-38 fibroblasts; experiment: cellular replicative lifespan (cumulative population doublings)
Experimental: as §1
as §1, with “The experiments were performed at least twice and data at each time point were in triplicate.” left out, “inoculated)^29.” for “inoculated) (Michishita, E. et al., Mol. Biol. Cell 16:4623 (2005); Pereira-Smith, O. M. et al., Somatic Cell Genet. 7:411 (1981)).”

hTERT/NHF cells = experiment: Nutlin-3A-induced senescence, SA-β-gal assay; details: 10 μM Nutlin-3A for 72 h

5′-UGUUCACUUGUGCCCUGACUUUCAA-3′ [Δ133si-1]
SA-β-gal activity [1]: induction of SA-β-gal activity
BrdU incorporation [2]: attenuation of BrdU incorporation
p21^WAF1 expression (p21^WAF1 and MDM2): upregulation of p21^WAF1
PAI-1 expression (PAI-1): upregulation
cleaved caspase-3 or PARP (apoptosis) (caspase-3 and PARP): No cleaved caspase-3 or PARP was observed
miR-34a expression at Δ133p53 knockdown-induced senescence (miR-34a): not upregulated

5′-CUU GUG CCC UGA CUU UCA A[dT][dT]-3′ [Δ133si-2]
SA-β-gal activity [1]: induction of SA-β-gal activity
BrdU incorporation [2]: attenuation of BrdU incorporation
p21^WAF1 expression (p21^WAF1 and MDM2): upregulation of p21^WAF1
PAI-1 expression (PAI-1): upregulation
cleaved caspase-3 or PARP (apoptosis) (caspase-3 and PARP): No cleaved caspase-3 or PARP was observed
miR-34a expression at Δ133p53 knockdown-induced senescence (miR-34a): not upregulated

COc1cccc2c1C(=O)c1c(O)c3c(c(O)c1C2=O)C[C@@](O)(C(=O)CO)C[C@@H]3O[C@H]1C[C@H](N)[C@H](O)[C@H](C)O1 [doxorubicin, reference compound]
apoptosis (caspase-3, PARP immunoblot) (caspase-3 and PARP; RKO cells, positive control): showing apoptosis

5′-AACAACCAGCUAAGACACUGCCA-3′ (antisense AACAACCAGCUAAGACACUGCCA; all 2'-O-methyl, backbone not given here) [antisense miR-34a]
miR-34a expression after antisense transfection (miR-34a; late-passage MRC-5, antisense 40 nM): downregulation of miR-34a expression was confirmed
replicative lifespan ([3]; late-passage MRC-5, antisense 40 nM transfected every 4 days): extended the replicative lifespan
extension of replicative lifespan ([3]; late-passage MRC-5 at passage 58, antisense transfected every 4 days): approximately five
inhibition of Nutlin-3A-induced senescence (hTERT/NHF cells): approximately 50%

COc1ccc(C2=N[C@@H](c3ccc(Cl)cc3)[C@@H](c3ccc(Cl)cc3)N2C(=O)N2CCNC(=O)C2)c(OC(C)C)c1 [Nutlin-3a, reference compound]
miR-34a expression (miR-34a; hTERT/NHF cells, p53 shRNA, or 10 μM Nutlin-3a for 36 h): induced
